Experimental data: patent publication US20030215817A1, “Modulation of gene expression in formation of fatty atherosclerotic lesions” (priority 2003, published 2003)

Tests used:
Assay type in all cases: in vivo, rabbit
[1] = test system: REC1_33 (digital address CCGA 96) mRNA, as1_casein gene; assay: TOGA analysis, REC1_33; details: REC1_33 CCGA 96; rabbit aorta, 14 days cholesterol
Method: (§1) To perform the studies, New Zealand male rabbits weighing 2.0-2.5 kg (Charles River, Calco, Italy) were used. The rabbits were divided into three groups and maintained in identical experimental conditions: (1) control group (n=15); rabbits fed a cholesterol-rich diet; (2) lercanidipine-treated group (n=15); rabbits fed a cholesterol-rich diet and also treated with lercanidipine (3 mg/kg/week); and (3) (R)-lercanidipine-treated group (n=5); rabbits fed a cholesterol-rich diet and also treated with the (R)-enantiomer of lercanidipine (3 mg/kg/week). After a 2 week period of subcutaneous, once a week, pretreatment with 3 mg/kg/week of lercanidipine or (R)-lercanidipine, the rabbits received a daily cholesterol supplement for up to 8 weeks or 2 weeks, respectively. In the following examples, use of the term “lercanidipine” refers to the racemic mixture of lercanidipine hydrochloride, whereas “(R)-lercanidipine” refers to the (R)-enantiomer of lercanidipine hydrochloride.
(§2) The mRNA from the above-described groups was isolated from aorta at different time points, resulting in the following mRNA samples: (1) Day 0 Control=no administered cholesterol, no lercanidipine; (2) Day 0+lercanidipine=no administered cholesterol, treatment with lercanipidine (2 weeks; 3 mg/kg/week); (3) Day 14 Control=cholesterol diet for two weeks, no lercanidipine; (4) Day 14+lercanidipine=cholesterol diet for two weeks, treatment with lercanidipine (four weeks; 3 mg/kg/week); (5) Week 8 Control=cholesterol diet for 8 weeks, no lercanidipine; and (6) Week 8+lercanidipine=cholesterol diet for 8 weeks, treatment with lercanidipine (10 weeks; 3 mg/kg/week). In addition, Day 14+(R)-lercanidipine mRNA samples were prepared from rabbits given a cholesterol diet for two weeks and treated with 3 mg/kg/week (R)-lercanidipine for four weeks.
(§3) Aorta mRNAs were prepared in the following manner. First, the aortas from each experimental group were retrieved and shredded using a polytron homogenizer. The samples were further homogenized using a teflon pestle, after which the cellular debris, nuclei, and blood cells were pelleted by centrifugation. The supernatants were extracted twice with phenol-chloroform-isoamyl alcohol and once with chloroform-isoamyl alcohol. RNA was then precipitated from the aqueous phase with ethanol. The poly A+ mRNA was prepared using standard methods of polyA selection known in the art (Schriber et al., J. Mol. Biol., 142:93-116 (1980)).
(§4) The isolated mRNA was analyzed using a method of simultaneous sequence-specific identification of mRNAs known as TOGA, described in U.S. Pat. No. 5,459,037 and U.S. Pat. No. 5,807,680, hereby incorporated herein by reference. In a preferred embodiment, the TOGA method further comprised an additional PCR step performed using a mixture of four 5′ PCR primers and cDNA templates prepared from a population of antisense cRNAs. A final PCR step that used a mixture of 256 5′ PCR primers produced PCR products that were cDNA fragments that corresponded to the 3′-region of the starting mRNA population. The produced PCR products were then identified by: (a) the initial 5′ sequence comprising the sequence remainder of the recognition site of the restriction endonuclease used to cut and isolate the 3′ region plus the sequence of the preferably four parsing bases immediately 3′ to the remainder of the recognition site, preferably the sequence of the entire fragment; and (b) the length of the fragment. These two parameters, sequence and fragment length, were used to compare the obtained PCR products to a database of known polynucleotide sequences. Since the length of the obtained PCR products includes known vector sequences at the 5′ and 3′ ends of the insert, the sequence of the insert provided in the sequence listing is shorter than the fragment length that forms part of the digital address.
(§5) The method yields Digital Sequence Tags (DSTs), that is, polynucleotides that are expressed sequence tags of the 3′ end of mRNAs. […]

[2] = test system: REC1_34 (digital address CGGT 209) mRNA; assay: TOGA analysis, REC1_34; details: REC1_34 CGGT 209; rabbit aorta, 14 days cholesterol
Method: as §1, §2, §3, §4, §5

[3] = test system: REC1_37 (digital address TTCA 264) mRNA, ribosomal protein L15; assay: TOGA analysis, REC1_37; details: REC1_37 TTCA 264; rabbit aorta, cholesterol 14 days
Method: as §1, §2, §3, §4, §5

[4] = test system: REC1_1 (MspI AAGC 288) mRNA, TYRO protein tyrosine kinase binding p; assay: TOGA analysis, REC1_1; details: REC1_1, AAGC 288; rabbit aorta; 14 days cholesterol + (R)-enantiomer
Method: as §1, §2, §3, §4, §5

[5] = test system: REC1_22 (digital address TGGG 164) mRNA; assay: TOGA analysis, REC1_22; details: REC1_22 TGGG 164; rabbit aorta, cholesterol 14 days
Method: as §1, §2, §3, §4, §5

[6] = test system: REC1_17 (TCGT 199) mRNA; assay: TOGA analysis, REC1_17; details: REC1_17 TCGT 199; rabbit aorta, 14 days cholesterol, (R)-enantiomer
Method: as §1, §2, §3
as §4, with “These two parameters, sequence and fragment length, were used to compare the obtained PCR products to a database of known polynucleotide sequences. Since the length of the obtained PCR products includes known vector sequences at the 5′ and 3′ ends of the insert, the sequence of the insert provided in the sequence listing is shorter than the fragment length that forms part of the digital address.” left out

[7] = test system: REC1_31 (digital address TGCA 210) mRNA, mitochondrial genome; assay: TOGA analysis, REC1_31; details: REC1_31 TGCA 210; rabbit aorta, cholesterol 14 days
Method: as §1, §2, §3, §4, §5

[8] = test system: REC1_24 (digital address CCGG 232) mRNA; assay: TOGA analysis, REC1_24; details: REC1_24 CCGG 232; rabbit aorta, 14 days cholesterol
Method: as §1, §2, §3, §4, §5

[9] = test system: REC1_7 (MspI CACA 282) mRNA; assay: TOGA analysis, REC1_7; details: REC1_7, CACA 282; rabbit aorta; 14 days cholesterol + (R)-enantiomer
Method: as §1, §2, §3, §4, §5

[10] = test system: REC1_28 (digital address CGGT 101) mRNA, calgizzarin; assay: TOGA analysis, REC1_28; details: REC1_28 CGGT 101; rabbit aorta, 14 days cholesterol
Method: as §1, §2, §3, §4, §5

[11] = test system: REC1_2 (MspI AATC 108) mRNA; assay: TOGA analysis, REC1_2; details: REC1_2, AATC 108; rabbit aorta; 14 days cholesterol + (R)-enantiomer
Method: as §1, §2, §3
as §4, with “These two parameters, sequence and fragment length, were used to compare the obtained PCR products to a database of known polynucleotide sequences. Since the length of the obtained PCR products includes known vector sequences at the 5′ and 3′ ends of the insert, the sequence of the insert provided in the sequence listing is shorter than the fragment length that forms part of the digital address.” left out

COC(=O)C1=C(C)NC(C)=C(C(=O)OC(C)(C)CN(C)CCC(c2ccccc2)c2ccccc2)[C@@H]1c1cccc([N+](=O)[O-])c1 [Lercanidipine (R)]
level of gene expression, 14 Day hypercholesterol + Lercanidipine (R) [1]: 170 | level of gene expression, 14 Day hypercholesterol + Lercanidipine (R) [2]: 58 | level of gene expression, 14 Day hypercholesterol + Lercanidipine (R) [3]: 42 | level of gene expression (TOGA), 14 Day hypercholesterol + Lercanidipine (R) [4]: 872 | level of gene expression, 14 Day hypercholesterol + Lercanidipine (R) [5]: 47 | level of gene expression (TOGA), 14 Day hypercholesterol + Lercanidipine (R) [6]: 1117 | level of gene expression, 14 Day hypercholesterol + Lercanidipine (R) [7]: 28 | level of gene expression, 14 Day hypercholesterol + Lercanidipine (R) [8]: 139 | level of gene expression (TOGA), 14 Day hypercholesterol + Lercanidipine (R) [9]: 683 | level of gene expression, 14 Day hypercholesterol + Lercanidipine (R) [10]: 864 | level of gene expression (TOGA), 14 Day hypercholesterol + Lercanidipine (R) [11]: 1250
